Measured values: the NIST ThermoML archive (doi:10.1021/je200811n)
Several values for one entry are separate records, joined by “and”; a condition that tells them apart may be missing. Equal entries are not always repeated. ± gives the expanded uncertainty stated by the source.

Settings: Hot wire method

F/C=C/C(F)(F)F [trans-1,3,3,3-tetrafluoropropene]
Settings | thermal conductivity
341.16 K, 8206 kPa, Liquid | 0.06693 ± 0.00076 W/m/K
341.17 K, 3028 kPa, Liquid | 0.06204 ± 0.0007 W/m/K
341.17 K, 12132 kPa, Liquid | 0.07036 ± 0.00078 W/m/K
341.2 K, 1573 kPa, Liquid | 0.06027 ± 0.00068 W/m/K
341.38 K, 96 kPa, Gas | 0.01689 ± 0.00057 W/m/K
341.39 K, 20076 kPa, Liquid | 0.07508 ± 0.00083 W/m/K
341.4 K, 194 kPa, Gas | 0.01707 ± 0.00057 W/m/K
341.4 K, 3026 kPa, Liquid | 0.06202 ± 0.0007 W/m/K
341.42 K, 8129 kPa, Liquid | 0.06706 ± 0.00075 W/m/K
341.42 K, 16390 kPa, Liquid | 0.07285 ± 0.00081 W/m/K
341.44 K, 21979 kPa, Liquid | 0.07653 ± 0.00085 W/m/K
341.45 K, 1581 kPa, Liquid | 0.06025 ± 0.00068 W/m/K
341.48 K, 12128 kPa, Liquid | 0.07023 ± 0.00079 W/m/K
341.48 K, 20072 kPa, Liquid | 0.07503 ± 0.00083 W/m/K
341.49 K, 5174 kPa, Liquid | 0.06424 ± 0.00072 W/m/K
341.5 K, 3025 kPa, Liquid | 0.06178 ± 0.0007 W/m/K
341.51 K, 16388 kPa, Liquid | 0.07271 ± 0.00081 W/m/K
341.52 K, 8125 kPa, Liquid | 0.0669 ± 0.00075 W/m/K
341.52 K, 21981 kPa, Liquid | 0.07638 ± 0.00085 W/m/K
341.54 K, 1585 kPa, Liquid | 0.05998 ± 0.00068 W/m/K
341.58 K, 5172 kPa, Liquid | 0.06405 ± 0.00072 W/m/K
341.58 K, 8204 kPa, Liquid | 0.06619 ± 0.00074 W/m/K
341.58 K, 12127 kPa, Liquid | 0.07002 ± 0.00079 W/m/K
341.64 K, 194 kPa, Gas | 0.01696 ± 0.00057 W/m/K
341.72 K, 673 kPa, Gas | 0.01756 ± 0.00059 W/m/K
341.75 K, 673 kPa, Gas | 0.01724 ± 0.00058 W/m/K
341.76 K, 3022 kPa, Liquid | 0.0618 ± 0.0007 W/m/K
341.77 K, 449 kPa, Gas | 0.01756 ± 0.00059 W/m/K
341.77 K, 450 kPa, Gas | 0.01753 ± 0.00059 W/m/K
341.81 K, 1588 kPa, Liquid | 0.06 ± 0.00068 W/m/K
341.81 K, 20066 kPa, Liquid | 0.07498 ± 0.00083 W/m/K
341.83 K, 1416 kPa, Gas | 0.01808 ± 0.00032 W/m/K
341.84 K, 16385 kPa, Liquid | 0.0727 ± 0.00081 W/m/K
341.84 K, 21982 kPa, Liquid | 0.07632 ± 0.00084 W/m/K
341.87 K, 297 kPa, Gas | 0.0174 ± 0.00058 W/m/K
341.88 K, 8122 kPa, Liquid | 0.06684 ± 0.00075 W/m/K
341.91 K, 194 kPa, Gas | 0.01763 ± 0.00059 W/m/K
341.92 K, 12126 kPa, Liquid | 0.06996 ± 0.00078 W/m/K
341.92 K, 20063 kPa, Liquid | 0.07481 ± 0.00083 W/m/K
341.94 K, 8199 kPa, Liquid | 0.0668 ± 0.00075 W/m/K
341.95 K, 21979 kPa, Liquid | 0.07618 ± 0.00084 W/m/K
341.96 K, 16381 kPa, Liquid | 0.07254 ± 0.0008 W/m/K
341.97 K, 1251 kPa, Gas | 0.01812 ± 0.00032 W/m/K
341.97 K, 5173 kPa, Liquid | 0.06395 ± 0.00072 W/m/K
342 K, 8119 kPa, Liquid | 0.06663 ± 0.00074 W/m/K
342.04 K, 96 kPa, Gas | 0.0178 ± 0.00059 W/m/K
342.04 K, 671 kPa, Gas | 0.01723 ± 0.00058 W/m/K
342.04 K, 1049 kPa, Gas | 0.01784 ± 0.00032 W/m/K
342.04 K, 1050 kPa, Gas | 0.01784 ± 0.00032 W/m/K
342.04 K, 12122 kPa, Liquid | 0.06981 ± 0.00078 W/m/K
342.06 K, 8193 kPa, Liquid | 0.0666 ± 0.00074 W/m/K
342.08 K, 870 kPa, Gas | 0.01766 ± 0.00059 W/m/K
342.09 K, 450 kPa, Gas | 0.0176 ± 0.00059 W/m/K
342.09 K, 868 kPa, Gas | 0.01764 ± 0.00059 W/m/K
342.09 K, 5187 kPa, Liquid | 0.06375 ± 0.00072 W/m/K
342.1 K, 450 kPa, Gas | 0.01757 ± 0.00059 W/m/K
342.19 K, 297 kPa, Gas | 0.0174 ± 0.00058 W/m/K
342.2 K, 297 kPa, Gas | 0.01731 ± 0.00058 W/m/K
342.25 K, 1250 kPa, Gas | 0.01811 ± 0.00032 W/m/K
342.26 K, 194 kPa, Gas | 0.01748 ± 0.00058 W/m/K
342.26 K, 1414 kPa, Gas | 0.01822 ± 0.00032 W/m/K
342.27 K, 20059 kPa, Liquid | 0.07476 ± 0.00083 W/m/K
342.3 K, 21979 kPa, Liquid | 0.07611 ± 0.00084 W/m/K
342.32 K, 16372 kPa, Liquid | 0.07244 ± 0.0008 W/m/K
342.33 K, 1047 kPa, Gas | 0.01784 ± 0.00032 W/m/K
342.33 K, 1048 kPa, Gas | 0.01781 ± 0.00032 W/m/K
342.36 K, 669 kPa, Gas | 0.01728 ± 0.00058 W/m/K
342.37 K, 670 kPa, Gas | 0.01729 ± 0.00058 W/m/K
342.38 K, 866 kPa, Gas | 0.01767 ± 0.00059 W/m/K
342.39 K, 867 kPa, Gas | 0.01765 ± 0.00059 W/m/K
342.4 K, 8117 kPa, Liquid | 0.06658 ± 0.00074 W/m/K
342.42 K, 450 kPa, Gas | 0.01758 ± 0.00059 W/m/K
342.43 K, 451 kPa, Gas | 0.01761 ± 0.00059 W/m/K
342.43 K, 12120 kPa, Liquid | 0.06971 ± 0.00078 W/m/K
342.43 K, 21977 kPa, Liquid | 0.07598 ± 0.00084 W/m/K
342.44 K, 97 kPa, Gas | 0.01786 ± 0.0006 W/m/K
342.46 K, 8190 kPa, Liquid | 0.06655 ± 0.00074 W/m/K
342.46 K, 16363 kPa, Liquid | 0.07249 ± 0.0008 W/m/K
342.55 K, 1411 kPa, Gas | 0.01807 ± 0.00032 W/m/K
342.56 K, 296 kPa, Gas | 0.01736 ± 0.00058 W/m/K and 0.01734 ± 0.00058 W/m/K
342.56 K, 1249 kPa, Gas | 0.01814 ± 0.00032 W/m/K
342.56 K, 8113 kPa, Liquid | 0.06632 ± 0.00074 W/m/K
342.58 K, 12118 kPa, Liquid | 0.06949 ± 0.00077 W/m/K
342.59 K, 1260 kPa, Gas | 0.01776 ± 0.00032 W/m/K
342.64 K, 1045 kPa, Gas | 0.01782 ± 0.00032 W/m/K
342.64 K, 1046 kPa, Gas | 0.01782 ± 0.00032 W/m/K
342.65 K, 194 kPa, Gas | 0.01771 ± 0.00059 W/m/K
342.71 K, 668 kPa, Gas | 0.01733 ± 0.00058 W/m/K
342.71 K, 864 kPa, Gas | 0.01769 ± 0.00059 W/m/K
342.72 K, 865 kPa, Gas | 0.01767 ± 0.00059 W/m/K
342.78 K, 20073 kPa, Liquid | 0.07479 ± 0.00083 W/m/K
342.79 K, 450 kPa, Gas | 0.01763 ± 0.00059 W/m/K
342.79 K, 451 kPa, Gas | 0.01763 ± 0.00059 W/m/K
342.81 K, 21978 kPa, Liquid | 0.07589 ± 0.00084 W/m/K
342.85 K, 97 kPa, Gas | 0.01784 ± 0.0006 W/m/K
342.85 K, 16357 kPa, Liquid | 0.07241 ± 0.0008 W/m/K
342.94 K, 296 kPa, Gas | 0.0174 ± 0.00058 W/m/K and 0.01739 ± 0.00058 W/m/K
342.96 K, 20077 kPa, Liquid | 0.07456 ± 0.00083 W/m/K
342.97 K, 1044 kPa, Gas | 0.01783 ± 0.00032 W/m/K
342.97 K, 21978 kPa, Liquid | 0.07571 ± 0.00084 W/m/K
342.98 K, 1044 kPa, Gas | 0.01784 ± 0.00032 W/m/K
342.98 K, 12116 kPa, Liquid | 0.06939 ± 0.00077 W/m/K
343.02 K, 16352 kPa, Liquid | 0.07225 ± 0.0008 W/m/K
343.05 K, 862 kPa, Gas | 0.01767 ± 0.00059 W/m/K
343.05 K, 863 kPa, Gas | 0.0177 ± 0.00059 W/m/K
343.06 K, 194 kPa, Gas | 0.01766 ± 0.00059 W/m/K
343.07 K, 666 kPa, Gas | 0.01736 ± 0.00058 W/m/K
343.08 K, 667 kPa, Gas | 0.01735 ± 0.00058 W/m/K
343.16 K, 1405 kPa, Gas | 0.01819 ± 0.00032 W/m/K
343.25 K, 1255 kPa, Gas | 0.01787 ± 0.00032 W/m/K
343.28 K, 96 kPa, Gas | 0.01785 ± 0.0006 W/m/K
343.32 K, 1043 kPa, Gas | 0.01783 ± 0.00032 W/m/K
343.35 K, 296 kPa, Gas | 0.01753 ± 0.00059 W/m/K
343.48 K, 194 kPa, Gas | 0.01763 ± 0.00059 W/m/K

Settings | thermal conductivity [W/m/K]
343.15 K, Liquid | 0.05993 ± 0.00044
